Assay results taken from patent publication US20210154162A1, “DRUG AND PHARMACEUTICAL COMPOSITION CONTAINING TRANSPORT PROTEIN INHIBITOR, AND USE” (Institute of Basic Medical Sciences Chinese Academy of …, priority 2018, published 2021).

Tests used:
PD-1 [1] = experiment: OVA-B16 melanoma-bearing mice with adoptively transferred CFSE-labeled OT-1 T cells, PD-1 expression; assay type: in vivo, mouse; conditions: Kyn 50 μg/mouse i.p. once every two days, three times; Day 7
Method: (6) C57BL/6 mice with 5×5 mm OVA-B16 melanoma were adoptively transferred with CFSE-labeled OT-1 CD8^+ T cells (4×10^6 cells/mouse, once every three days) on three occasions. At the same time, some mice were i.p. injected with Kyn (50 μg/mouse, once every two days) for three times. On Day 7 after transferring, CFSE^+CD8^+ T cells were isolated from tumor for flow cytometric analysis of PD-1 expression.
(8) The experimental steps were the same as those of step (7), except that C57BL/6 mice were treated with Kyn, DMF (5 μg/mouse, o.t., twice every day) or Kyn+DMF for 6 days. CFSE^+CD8^+ T cells from tumor were isolated for flow cytometric analysis of PD-1 expression.

CD8^+ T cells = experiment: Kyn i.p. injection in WT or AhR-/- C57BL/6 mice, analysis of CD8+ T cells; assay type: in vivo, mouse
Method: (1) WT C57BL/6 mice were i.p. injected with PBS or Kyn (50 μg, once per day) for 5 days, and CD8^+ T cells were sorted by FACS from the spleen and mesenteric lymph nodes. PD-1 expression was determined by flow cytometry (FIG. 6A). Some CD8^+ T cells from spleen were immunostained with AhR and DAPI (FIG. 6B), and the mRNA expression of PAT4 and SLC7A8 was determined by real-time PCR (FIG. 6C). […] Bar, […]. (2) The experimental steps were the same as those of step (1), except that AhR^−/− mice were used. (3) PD-1 expression in resting or anti-CD3/CD28 bead-activated splenic CD8^+ T cells was determined, wherein said cells were isolated from AhR^−/− C57BL/6 mice injected with PBS or Kyn for 5 days.

PD-1 [2] = experiment: PD-1 expression in human CD8+ T cells treated with Kyn and AhR inhibitors (flow cytometry); assay type: cell-based; conditions: resting and activated CD8+ T cells from healthy donors, breast and lung cancer patients; Kyn 200 μM, 48 h
Method: (4) CD8^+ T cells isolated from PBMCs of patients with breast cancer or lung cancer were activated by anti-CD3/CD28 beads and treated with PBS, Kyn (200 μM) or Kyn/DMF (20 μM) for 48 h. The expression of PD-1 was determined by flow cytometry.
(5) CD8^+ T cells isolated from patients with breast cancer or lung cancer were treated with DMF (20 μM) for 48 h. PD-1 expression was determined by flow cytometry (n=6).

PD-1 [3] = experiment: PD-1 expression in anti-CD3/CD28 bead-activated CD8+ T cells treated with Kyn or other tryptophan metabolites (flow cytometry); assay type: cell-based, mouse; conditions: Kyn at different concentrations; 200 μM for different time periods; anti-CD3/CD28 microbeads
Method: (4) The isolated splenic CD8^+ T cells were incubated with anti-CD3/CD28 beads in the presence of different concentrations of Kyn. PD-1 expression was determined by flow cytometry.
(5) The experimental steps were the same as those of step (4), except that CD8^+ T cells were treated with 200 μM Kyn for different time periods as shown in FIG. 2E.
(6) Anti-CD3/CD28 bead-activated CTLs were treated with PBS, 200 μM Kyn or other metabolites (500 μM) from the tryptophan pathway (melatonin, kynurinic acid and indoxyle sulphate). After 24 h, PD-1 expression was determined by flow cytometry.

AhR = AhR translocation in human peripheral CD8+ T cells; assay type: cell-based; conditions: resting and activated peripheral CD8+ T cells from breast and lung cancer patients, Kyn treatment
PAT4 and SLC7A8 [4] = experiment: PAT4 and SLC7A8 expression in CD8+ T cells from breast cancer patients (real-time PCR); assay type: cell-based, human; conditions: human CD8+ T cells, Kyn, 48 h
Method: (8) CD8^+ T cells from breast cancer patients were treated with PBS, Kyn ([…] (20 μM) or Kyn/CH (50 μM) for 48 h. The expression of PAT4 and SLC7A8 was determined by real-time PCR. The determination results were as shown in FIG. 7I.

B16 melanoma = experiment: B16 melanoma-bearing C57BL/6 mice treated with Kyn, DMF or Kyn+DMF; assay type: in vivo, mouse
Method: (9) C57BL/6 mice with 5×5 mm B16 melanoma were treated with PBS, Kyn (50 μg/mouse, i.p., once every two days), DMF (5 μg/mouse, o.t., once every day) or Kyn+DMF for 6 days. PD-1 expression in CD8^+ T cells isolated from tumors was determined by flow cytometry (n=5). (14) The experimental steps were the same as those of step (9), except that the tumors were weighed. The weighing results were as shown in FIG. 6P. *p<0.05, **p<0.01; #p<0.05, ##p<0.01, as compared with CTL group. The data represented mean±SEM.

PAT4 and SLC7A8 [5] = experiment: PAT4 and SLC7A8 expression in activated CD8+ T cells (real-time PCR, immunostaining); assay type: cell-based, mouse; conditions: activated CD8+ T cells, Kyn 200 μM, 24 h
Method: (2) Activated CD8^+ T cells were treated with PBS or Kyn (200 μM) for 24 h. The expression of PAT4 and SLC7A8 was determined by real-time PCR (left) and immunostaining (right). Bar, […].
(6) The mRNA expression of PAT4 and SLC7A8 was determined in activated CD8^+ T cells treated with PBS, Kyn, Kyn/CH-223191 (10 μM) or Kyn/DMF (20 μM) for 48 h.

PD-1 [6] = experiment: ID8 ovarian cancer and H22 hepatocarcinoma ascites peritoneal tumor models; assay type: in vivo, mouse; conditions: Kyn i.p., 6 days
Method: (10) C57BL/6 mice were intraperitoneally injected with 1×10^6 ID8 ovarian cancer cells. After 10 days, mice were intraperitoneally administered with PBS, Kyn, DMF or Kyn+DMF for 6 days. CD8^+ T cells from ascites were isolated and PD-1 expression was determined by flow cytometry (n=5).

PD-1 [7] = experiment: Effect of SAR and BCH on PD-1 expression in mouse CD8+ T cells (flow cytometry); assay type: cell-based; conditions: 200 μM Kyn, 48 h
Method: Mouse splenic CD8^+ T cells were obtained by magnetic bead sorting, and seeded into a U-shaped bottom 96-well plate (100000 cells/well) while anti-CD3/CD28 magnetic beads were added to activate T cells. The culture medium was RPMI-1640 added with 10 ng/mL mouse IL-2 and […] β-mercaptoethanol. Cells were grouped and treated with drugs as follows.
Control group 1 (PBS): culture medium+PBS;
Experimental group 2 (Kyn): culture medium+200 μM Kyn;
Experimental group 3 (Kyn+SAR): culture medium+200 μM Kyn+10 mM SAR;
Experimental group 4 (Kyn+BCH): culture medium+200 μM Kyn+100 μM BCH;
The expression level of PD-1 in CD8^+ T cells of each group was determined by flow cytometry after 48 h.

Nc1ccccc1C(=O)CC(N)C(=O)O (stereo not drawn) [Kyn, kynurenine]
PD-1 expression in tumor-infiltrating CFSE+ T cells (PD-1 [1]): much higher levels of PD-1 expression | PD-1 expression (CD8^+ T cells; AhR-/- mice, Kyn for 5 days): failed to induce | PD-1 expression in CD8+ T cells of spleen and lymph nodes (CD8^+ T cells; WT C57BL/6 mice, Kyn 50 μg i.p. once per day, 5 days): upregulated PD-1 expression | expression of Kyn transporters SLC7A8 and PAT4 (CD8^+ T cells; WT C57BL/6 mice, Kyn 50 μg i.p., 5 days): upregulated | AhR localisation in CD8+ T cells (CD8^+ T cells; WT C57BL/6 mice, Kyn 50 μg i.p., 5 days, spleen): translocated to the nucleus | PD-1 expression (PD-1 [2]): upregulated | PD-1 expression (PD-1 [3]): markedly upregulated | AhR localisation (AhR): promoted the translocation of AhR from the cytosol to nucleus | expression of SLC7A8 and PAT4 (PAT4 and SLC7A8 [4]): upregulated | PD-1 expression in CD8+ T cells isolated from tumor, spleen or lymph nodes (B16 melanoma; Kyn 50 μg/mouse i.p. once every two days, 6 days): upregulate | tumor growth (tumors weighed) (B16 melanoma; Kyn-treatment): accelerated tumor growth | expression of SLC7A8 and PAT4 (PAT4 and SLC7A8 [5]): strikingly resulted in the upregulation | PD-1 expression in peritoneal, splenic or lymph node CD8+ T cells (PD-1 [6]): promoted | expression of IFN-γ and TNF-α (PD-1 [6]): inhibited | expression of PD-1 in CD8+ T cells (PD-1 [7]): significant increased
